Laboratory results from patent publication US9291629B2, “Adiponectin receptor C-terminal fragments (CTF)-immunoglobulin” (Siemens Healthcare Diagnostics Inc., priority 2011, dated 2016).

How the values were obtained:
[1] = system: CTF immunoglobulin; assay: Western blot of CTF immunoglobulin in tissues of diabetic rats treated with AdipoR1 CTF25; format: in vivo; settings: for Primarily observed immunoglobulin chains with CTF: treated diabetic rats
Protocol: Western blot analyses were run on human plasma, pancreas, adipose, liver and muscles tissue, as well as myocytes and epithelial cell culture homogenates according to the following methods and variations thereof.
(§1) Samples and homogenates with protein concentration of about 20 ug/ml were boiled in water for 5 minutes in buffer with SDS and chilled on ice to denature the protein. The sample was then centrifuged to remove precipitate and was boiled sample 1:1 with BioRad Laemmli buffer with 5% beta-mercaptoethanol to break the disulfide bonds. The treated samples were loaded onto the 12% or 10% Ready Gel (Biorad) and SDS-PAGE gel was run in Tris, glycine, SDS buffer (BioRad) at 110V (BioRad PROTEAN® Tetra Cel) for 1-1.5 hours until the bromophenol blue reached the bottom of the gel. Gel plates were disassembled, soaked in transfer buffer and the gels were transferred to 0.2 um nitrocellulose paper at 30V in a 4° C. chamber overnight.
(§2) After the protein transfer, the nitrocellulose was rinsed and washed with TTBS buffer (20 mM Tris, 500 mM NaCl, pH 7.4, 0.1% Tween®-20). The membrane was then blocked with 5% BSA in TTBS at room temperature with gentle agitation. The blocking buffer was then removed and the membrane was incubated with antibodies conjugated to alkaline phosphatase or horse radish peroxidase. For AdipoR1 CTF, the mAb 444-1D12 conjugated to alkaline phosphatase was used (2.5 mg/ml diluted 1:1000 Siemens Healthcare Diagnostics). The membrane with antibody conjugate was incubated at room temperature for 3 hours or at 4° C. overnight with gentle agitation. The antibody was then discarded and the gel was washed three times with TTBS for 5 minutes each. The membrane was incubated with the alkaline phosphate or horse radish peroxidase substrate and the color developed and recorded. In some cases the membrane was imaged by exposure to X-ray film (Fisher) at a desired time (3 seconds to 10 minutes) and then developed using Kodak® GBX developer/fixer.
The results of the western blots obtained on liver, pancreas, muscle and mesenteric tissues of normal rats, diabetic rats and diabetic rats treated with AdipoR1 CTF25 (SEQ ID NO: 11) are shown in Table 3. Results are typical for all monoclonal antibodies to CTF AdipoR1 and AdipoR2 and treatments tested. All of the tissues show the presence of CTF immunoglobulins. […] Differences in the amount of immunoglobulin chains with CTF were observed between individual rat and between normal and diabetic rats. All tissues contained IDE and TACE.

[2] = system: mouse myocytes (C2C12); assay: Western blot of CTF immunoglobulin in induced mouse myocytes (C2C12); format: cell-based; settings: for Increase of CTF immunoglobulin on treatment of cell cultures: myocyte cell culture; for Primarily observed immunoglobulin chains with CTF: treated myocyte, denatured western blot of lysates
Protocol: as §1, §2
(§3) Cell culture mouse myocytes (C2C12) and green monkey epithelial cell (VERO) (American Type Cell Culture, ATCC, Manassa Va.) were maintained in culture using RPMI-1640 media, while normal cells were maintained with modified Eagle's medium (MEM). Both media contained 2 mM glutamine, penicillin (50 units/ml), streptomycin (50 μg/ml), and 10% fetal bovine serum. The media was cytokine free. Cells were grown at 37° C. in an atmosphere of 95% air and 5% CO2 and propagated by splitting with 1 to 4 dilutions using PBS/EDTA at cell growth confluence. Cell lines were synchronized and induced with R1 CTF25 SEQ ID NO:11 or globular adiponectin.
(§4) Both cell lines expressed Adiponectin receptor 1 and lysates from both cell lines contained CTF immunoglobulin, comprising the heavy chain and full IgG but without the light chain form on denatured Western blots. As these are cell cultures grown in fetal bovine serum containing bovine IgG, the cells attach CTF to IgG. […]

[3] = system: green monkey epithelial cell (VERO); assay: Western blot of CTF immunoglobulin in induced green monkey epithelial cells (VERO); format: cell-based; settings: for Increase of CTF immunoglobulin on treatment of cell cultures: epithelial cell culture; for Primarily observed immunoglobulin chains with CTF: treated epithelial cells, denatured western blot of lysates
Protocol: as §1, §2, §3, §4

Substance: HFYGVSNLQEFRYGLEGGCTDDTLL [AdipoR1 CTF25]
- Increase of CTF immunoglobulin bands on treatment ([1]; rat tissues): did not increase bands
- Primarily observed immunoglobulin chains with CTF ([1]; liver): Light chains
- Primarily observed immunoglobulin chains with CTF ([1]; mesenteric tissues): Heavy & light
- Primarily observed immunoglobulin chains with CTF ([1]; muscle): Heavy & light
- Primarily observed immunoglobulin chains with CTF ([1]; pancreas): Heavy chain
- Increase of CTF immunoglobulin on treatment of cell cultures [2]: did not increase CTF immunoglobulin
- Primarily observed immunoglobulin chains with CTF [2]: Heavy chains &
- Increase of CTF immunoglobulin on treatment of cell cultures [3]: did not increase CTF immunoglobulin
- Primarily observed immunoglobulin chains with CTF [3]: Heavy chains &

Substance: adiponectin [reference compound]
- Increase of CTF immunoglobulin on treatment of cell cultures [2]: did not increase CTF immunoglobulin bands
- Primarily observed immunoglobulin chains with CTF [2]: Heavy chains & full
- Increase of CTF immunoglobulin on treatment of cell cultures [3]: did not increase CTF immunoglobulin bands
- Primarily observed immunoglobulin chains with CTF [3]: Heavy chains & full
